Patent US20180071242A1, “SUBSTITUTED ACYLANILIDES AND METHODS OF USE THEREOF” (University of Tennessee Research Foundation, priority 2006, published 2018)

Experiments:
GR = biological target: T1, GR (Rattus norvegicus, UniProt P06536); assay: Transient transfection luciferase transactivation assay in HEK-293 cells; format: cell-based; settings: for GR-mediated transactivation, agonist mode (in words): all tested concentrations; for Inhibition of dexamethasone-induced GR-mediated transactivation, antagonist mode (in words): with 1 nM dexamethasone
T1 construct: expressed in transfected cells; host or cells: HEK-293
T1 sequence (P06536 1-795): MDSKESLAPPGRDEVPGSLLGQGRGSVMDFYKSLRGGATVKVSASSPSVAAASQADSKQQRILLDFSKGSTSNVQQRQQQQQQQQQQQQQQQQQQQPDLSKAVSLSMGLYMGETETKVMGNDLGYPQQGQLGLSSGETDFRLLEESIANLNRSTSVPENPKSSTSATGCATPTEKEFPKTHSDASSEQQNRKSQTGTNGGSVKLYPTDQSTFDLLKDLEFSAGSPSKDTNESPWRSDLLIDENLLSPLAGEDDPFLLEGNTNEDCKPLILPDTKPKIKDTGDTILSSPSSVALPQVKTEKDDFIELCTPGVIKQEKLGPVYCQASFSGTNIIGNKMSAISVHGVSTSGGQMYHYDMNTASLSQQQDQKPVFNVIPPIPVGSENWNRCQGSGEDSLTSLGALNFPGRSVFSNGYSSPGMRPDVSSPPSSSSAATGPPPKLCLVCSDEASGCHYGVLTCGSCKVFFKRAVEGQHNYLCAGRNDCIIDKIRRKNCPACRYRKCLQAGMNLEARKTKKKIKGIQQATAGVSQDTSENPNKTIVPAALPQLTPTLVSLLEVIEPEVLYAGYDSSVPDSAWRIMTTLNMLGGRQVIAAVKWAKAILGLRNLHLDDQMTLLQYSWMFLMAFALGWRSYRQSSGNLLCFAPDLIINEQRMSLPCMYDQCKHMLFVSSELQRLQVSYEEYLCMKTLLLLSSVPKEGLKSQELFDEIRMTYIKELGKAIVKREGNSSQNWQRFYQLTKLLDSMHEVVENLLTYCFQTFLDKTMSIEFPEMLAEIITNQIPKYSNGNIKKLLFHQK

ER-α = biological target: T2, ER-α (Rattus norvegicus, UniProt P06211); assay: as above; format: cell-based; settings: for ER-α transactivation, agonist mode (in words): up to the highest tested concentration (1 μM); for Inhibition of estradiol-induced ER-α activity, antagonist mode (in words): with 1 nM estradiol
T2 construct: expressed in transfected cells; host or cells: HEK-293
T2 sequence (P06211 1-600): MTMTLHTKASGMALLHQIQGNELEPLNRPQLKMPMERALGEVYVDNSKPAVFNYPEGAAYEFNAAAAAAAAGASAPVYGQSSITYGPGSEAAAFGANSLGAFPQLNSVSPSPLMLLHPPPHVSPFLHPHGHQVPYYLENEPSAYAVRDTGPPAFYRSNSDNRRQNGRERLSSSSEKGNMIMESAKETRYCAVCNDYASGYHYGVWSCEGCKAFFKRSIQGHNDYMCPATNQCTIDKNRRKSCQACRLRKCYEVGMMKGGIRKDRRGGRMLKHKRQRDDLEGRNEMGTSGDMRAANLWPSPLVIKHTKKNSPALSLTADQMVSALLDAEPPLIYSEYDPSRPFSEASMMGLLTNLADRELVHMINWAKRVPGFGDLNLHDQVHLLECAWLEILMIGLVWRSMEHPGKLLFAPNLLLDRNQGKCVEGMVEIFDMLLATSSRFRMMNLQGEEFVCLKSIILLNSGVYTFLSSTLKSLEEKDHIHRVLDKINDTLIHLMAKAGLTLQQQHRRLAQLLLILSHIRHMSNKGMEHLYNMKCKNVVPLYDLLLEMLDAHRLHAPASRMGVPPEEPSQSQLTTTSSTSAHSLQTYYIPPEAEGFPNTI

MR = biological target: T3, MR (Rattus norvegicus, UniProt P22199); assay: as above; format: cell-based; settings: for MR-mediated transactivation, agonist mode (in words): all tested concentrations; for Inhibition of aldosterone-induced MR-mediated transactivation, antagonist mode (in words): with 1 nM aldosterone
T3 construct: expressed in transfected cells; host or cells: HEK-293
T3 sequence (P22199 1-981): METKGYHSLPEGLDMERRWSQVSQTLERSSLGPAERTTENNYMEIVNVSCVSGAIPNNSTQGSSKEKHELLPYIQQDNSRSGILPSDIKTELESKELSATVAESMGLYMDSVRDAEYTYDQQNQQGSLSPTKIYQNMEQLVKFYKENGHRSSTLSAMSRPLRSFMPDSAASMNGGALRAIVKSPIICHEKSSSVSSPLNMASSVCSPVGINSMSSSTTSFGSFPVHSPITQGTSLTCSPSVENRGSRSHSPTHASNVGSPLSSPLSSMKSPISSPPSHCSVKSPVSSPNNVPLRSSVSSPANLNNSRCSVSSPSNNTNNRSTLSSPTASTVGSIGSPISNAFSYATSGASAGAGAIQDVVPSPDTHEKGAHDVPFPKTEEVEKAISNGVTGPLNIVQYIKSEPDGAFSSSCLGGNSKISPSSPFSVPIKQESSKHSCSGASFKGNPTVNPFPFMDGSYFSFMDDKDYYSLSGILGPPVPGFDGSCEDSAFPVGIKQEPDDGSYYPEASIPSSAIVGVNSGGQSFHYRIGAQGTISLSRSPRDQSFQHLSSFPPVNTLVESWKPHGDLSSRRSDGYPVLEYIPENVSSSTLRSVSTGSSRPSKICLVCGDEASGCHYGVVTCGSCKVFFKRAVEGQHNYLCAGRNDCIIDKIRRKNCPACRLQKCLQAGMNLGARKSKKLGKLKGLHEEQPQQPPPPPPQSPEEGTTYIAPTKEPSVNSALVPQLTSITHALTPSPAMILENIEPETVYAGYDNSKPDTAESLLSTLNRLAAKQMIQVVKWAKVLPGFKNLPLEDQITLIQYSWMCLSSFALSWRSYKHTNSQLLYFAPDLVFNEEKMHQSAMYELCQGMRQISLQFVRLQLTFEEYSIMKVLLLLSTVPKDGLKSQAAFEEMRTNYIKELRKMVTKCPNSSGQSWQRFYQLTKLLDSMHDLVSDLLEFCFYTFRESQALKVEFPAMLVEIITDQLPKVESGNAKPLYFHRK

CYP3A4 = biological target: T4, CYP3A4 (Homo sapiens, UniProt P08684); assay: CYP inhibition screening, recombinant enzyme (fluorescent-based) assay; format: in vitro ADME
T4 construct: purchased Gentest, BD Biosciences
T4 sequence (P08684 whole entry): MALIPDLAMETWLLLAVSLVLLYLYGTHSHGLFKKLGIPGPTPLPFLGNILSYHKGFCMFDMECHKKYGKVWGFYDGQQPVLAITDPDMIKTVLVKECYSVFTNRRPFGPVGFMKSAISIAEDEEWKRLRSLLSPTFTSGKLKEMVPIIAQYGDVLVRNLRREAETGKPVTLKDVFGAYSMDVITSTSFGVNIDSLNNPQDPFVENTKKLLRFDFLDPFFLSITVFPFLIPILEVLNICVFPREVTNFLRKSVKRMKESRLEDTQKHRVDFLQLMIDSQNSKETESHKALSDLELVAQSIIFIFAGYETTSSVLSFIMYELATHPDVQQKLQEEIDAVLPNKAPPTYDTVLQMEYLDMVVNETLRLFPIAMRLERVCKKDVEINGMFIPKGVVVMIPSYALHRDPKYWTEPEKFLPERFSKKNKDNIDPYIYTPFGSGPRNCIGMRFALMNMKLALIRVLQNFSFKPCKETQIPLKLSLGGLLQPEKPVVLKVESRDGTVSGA

CYP2C19 = biological target: T5, CYP2C19 (Homo sapiens, UniProt P33261); assay: as above; format: in vitro ADME; settings: for Inhibition of CYP2C19 activity (in words): human, human cDNA-expressed (recombinant) CYP2C19, 30 min
T5 construct: purchased Gentest, BD Biosciences
T5 sequence (P33261 whole entry): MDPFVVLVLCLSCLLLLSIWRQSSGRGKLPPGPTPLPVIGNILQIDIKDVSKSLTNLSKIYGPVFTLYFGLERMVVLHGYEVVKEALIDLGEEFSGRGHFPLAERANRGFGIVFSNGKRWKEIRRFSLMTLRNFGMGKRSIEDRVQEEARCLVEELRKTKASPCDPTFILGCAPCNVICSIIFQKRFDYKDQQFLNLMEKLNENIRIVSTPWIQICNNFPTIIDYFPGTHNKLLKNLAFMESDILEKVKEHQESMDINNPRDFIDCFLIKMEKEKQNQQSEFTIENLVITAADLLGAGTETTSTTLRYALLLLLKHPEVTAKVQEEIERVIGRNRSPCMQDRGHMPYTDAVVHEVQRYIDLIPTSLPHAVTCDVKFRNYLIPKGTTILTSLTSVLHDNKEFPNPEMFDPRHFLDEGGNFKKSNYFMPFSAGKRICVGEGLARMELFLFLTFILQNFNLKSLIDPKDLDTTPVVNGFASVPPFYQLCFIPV

Structure (SMILES) | GR-mediated transactivation, agonist mode (in words) (GR) | Inhibition of dexamethasone-induced GR-mediated transactivation, antagonist mode (in words) (GR) | ER-α transactivation, agonist mode (in words) (ER-α) | Inhibition of estradiol-induced ER-α activity, antagonist mode (in words) (ER-α) | MR-mediated transactivation, agonist mode (in words) (MR) | Inhibition of aldosterone-induced MR-mediated transactivation, antagonist mode (in words) (MR) | IC50 (CYP3A4) | IC50 (CYP2C19) | Inhibition of CYP2C19 activity (in words) (CYP2C19)
C[C@](O)(COc1ccc(C#N)cc1)C(=O)Nc1ccc(C#N)c(Cl)c1 [S-(I), (S)—N-(3-chloro-4-cyanophenyl)-3-(4-cyanophenoxy)-2-hydroxy-2-methylpropanamide] | failed to activate | failed to alter | failed to activate | failed to alter | failed to activate | failed to alter | > 20 µM | > 20 µM | –
C[C@](O)(COc1ccc(Cl)cc1)C(=O)Nc1ccc(C#N)c(C(F)(F)F)c1 [S-(II)] | did not induce | not inhibited | failed to activate | failed to alter | did not induce | not inhibited | > 20 µM | 0.1 µM | moderate inhibition
C[C@](O)(COc1ccc(F)cc1)C(=O)Nc1ccc(C#N)c(C(F)(F)F)c1 [S-(III)] | did not induce | not inhibited | failed to activate | failed to alter | did not induce | not inhibited | > 20 µM | 0.1 µM | moderate inhibition
